Where two headings read alike, the source gives them in different places.

Consider six molecules from patent publication US11713305B2, “Zinc sensors for in vivo imaging of beta-cell function by MRI” (The Board of Regents of the University of Texas System, priority 2017, dated 2023).

The conditions of series [1]: comparison Dy complexes; cited from earlier work.
For series [2] the following is noted: cited from earlier work.
A further series concerns mouse pancreas. The series is described as follows: In vivo MR imaging of glucose stimulated insulin secretion (GSIS) in the mouse pancreas. The arrangement: species or system C57B1/6 mice. As to conditions: over the first 10-15 min after injection; 0.07 mmol/kg i.v., glucose IP. From the text:
Both phases of insulin secretion are considered essential, but the early RRP phase that is thought to be the first signal reduced during the development of type 2 diabetes (Komatsu et al., 2013; Hosker et al., 1989). In principle, both phases of insulin secretion should be detectable by MRI if enough sensor is present in the extracellular space during the time-course of these events. Biphasic GSIS was not detected by MRI in previous experiments using the first generation Zn^2+ sensors with a high affinity for Zn^2+ but we hypothesized that GSIS may be more easily detected using these second-generation agents having a much lower affinity for Zn^2+. To test this, dynamic MRI scans were collected after administering either GdL1, GdL2, GdL3 or GdL4 to C57B1/6 mice via a tail vein (0.07 mmol/kg). Nearly simultaneously with agent injection, a bolus (50 μL) of 20% w/v glucose was administered IP to stimulate secretion of insulin.
All animal experiments were performed in accordance with guidelines set by the UT Southwestern Institutional Animal Care and Use Committee (IACUC). Male C57b1/6 mice were fasted for at least 12 hours before imaging experiments. The animals were anaesthetized with isofluorane and catheterized via the tail vein. Once the animals were secured inside a 38 mm volume coil, the pancreas was positioned in the center of the 9.4 T Varian MRI scanner. Two 3D T1-weighted gradient echo pre-injection scans were obtained (TE/TR=1.69/3.34 ms, NEX8, Matrix=128×128 ×128). 70 μl of 20 mM contrast agent were injected i.v. and 50 μl of 20% w/v D-glucose were injected intraperitoneally and consecutive 3D T1-weighted scans were obtained sequentially to monitor signal enhancement in the pancreas. Identification of the pancreas was accomplished by locating the tissues surrounded by the spleen, stomach, and kidneys. A total of 3 animals were scanned per group and images were quantified and analyzed using ImageJ (National Institutes of Health, Bethesda, Md.). The signal intensities from ROIs of the tip of the pancreas were measured before, at every ˜3-4 minutes post D-glucose injection over 30 minutes total. The values were normalized to the signal intensity obtained from a water phantom placed on the mouse abdomen. Contrast enhancement was calculated using the formula
[formula] Statistical analysis was performed by comparing the mean values using a two-tailed t-test. Statistical difference was evaluated using t-scores and p-values at a 95 and 99% confidence level.

The nature of series [3]: Kinetic inertness (transmetalation by Zn(II) in phosphate buffer). In kind it is physicochemical. As to conditions: four equivalents of Zn^2+ in phosphate buffer (pH=7), 310 K. The text has this:
Shortly after the first confirmed clinical cases of nephrogenic systemic fibrosis (NSF), increased efforts have been made to design agents with high thermodynamic stability and kinetic inertness (Kallen et al., 2008; Reilly, 2008; Rofsky et al., 2008; Wiginton et al., 2008; Abujuden et al., 2009). The sensors shown here are very stable macrocyclic DO3A-monoamide derivatives with reported log KML>20. However, given that the agents reported here also have a high affinity for Zn^2+ ions, and Zn^2+ has been implicated as the major competing ion for transmetalation of Gd^3+ agents derived from linear polyamine ligands, the kinetic rate of Gd^3+ release is arguably the most critical factor in determining in vivo toxicity (Laurent et al., 2010). Using a previously published method (Laurent et al., 2010) consisting of incubating each agent with four equivalents of Zn^2+ in phosphate buffer (pH=7), we compared the kinetic stability of the agents reported here with the FDA-approved agent Magnevist® (GdDTPA, cf. FIG. 7).
Kinetic inertness was determined according to published procedures with minor modifications (Laurent et al., 2010; Silverio et al., 2009). Stock solutions of phosphate buffer (67 mM, pH=7.4), Gd(III) chelates (10 mM) and ZnCl2 (231 mM) were prepared first. Calculated volumes of stock solutions or water were pipetted into small glass vials to obtain a test solution of 300 μL with 30 mM phosphate, 1.5 mM Gd(III) chelate, and 6.0 mM Zn(II). Samples were measured 15 minutes after the sample temperature stabilized at 310 K. During the entire experiment, the samples inside the NMR tubes were kept in an incubator at 310 K. The T1 of the solutions was determined at 310 K and 0.47 T (20 MHz) at various time points within 7 days. As a reference, GdDTPA was analyzed under the same conditions. The R1^P relaxation rate is obtained by subtracting the diamagnetic contribution of the water relaxation (0.28 s-1) from the observed relaxation rate R1=(1/T1).

Another series has as its target T1, HSA (Homo sapiens, UniProt P02768).
T1 construct: purchased Sigma-Aldrich
As to conditions: used in fitting; read-out: KD for dansylglycine (HSA); cited from earlier work.

[4] abbreviates: Measured at 25° C., Powell et al., 1994, 1996.

T1 sequence (P02768 25-609): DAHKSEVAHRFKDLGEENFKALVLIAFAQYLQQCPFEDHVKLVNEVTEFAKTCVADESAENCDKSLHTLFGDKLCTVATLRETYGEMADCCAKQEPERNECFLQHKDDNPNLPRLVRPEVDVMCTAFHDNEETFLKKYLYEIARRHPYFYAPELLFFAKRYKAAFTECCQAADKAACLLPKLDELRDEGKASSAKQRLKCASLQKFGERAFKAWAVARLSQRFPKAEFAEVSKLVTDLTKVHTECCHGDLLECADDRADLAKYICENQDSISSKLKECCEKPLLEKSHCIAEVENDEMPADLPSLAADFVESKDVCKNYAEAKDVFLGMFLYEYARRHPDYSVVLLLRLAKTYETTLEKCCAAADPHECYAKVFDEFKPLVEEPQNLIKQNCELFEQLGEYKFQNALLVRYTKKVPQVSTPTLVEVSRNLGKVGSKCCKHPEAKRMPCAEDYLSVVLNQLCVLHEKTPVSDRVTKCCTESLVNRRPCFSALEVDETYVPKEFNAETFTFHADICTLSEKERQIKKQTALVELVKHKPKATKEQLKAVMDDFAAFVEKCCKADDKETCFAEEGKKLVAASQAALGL

For `O=C([O-])CNC(=O)CN1CCN(CC(=O)NCC(=O)[O-])CCN(CC(=O)NCC(=O)[O-])CCN(CC(=O)NCC(=O)[O-])CC1.[Dy+3]` [Dy DOTA-(gly)4], in series [1], the “1/T2m^298” value is 1000 10^4 s^−1, the A1 is given as −50 10^6rad s^−1K T^−1, the A2 is 0 10^9rad s^−1K^2 T^−1 and the ER is -12 kcal/mol. In series [1], the “kex^298” value is 0.09 10^6 s^−1 and the “ΔH^‡” value is 12.7 kcal/mol.
With `O=C([O-])CN1CCN(CC(=O)[O-])CCN(CC(=O)[O-])CCN(CC(=O)[O-])CC1.[Dy+3]` [DyDOTA], in series [1], the “1/T2m^298” value is on record as 20 10^4 s^−1, the A1 is on record as −50 10^6rad s^−1K T^−1, the A2 is given as 0 10^9rad s^−1K^2 T^−1 and the ER was -21.5 kcal/mol. Also, in series [1], the “kex^298” value is on record as 70 10^6 s^−1 and the “ΔH^‡” value was 21.5 kcal/mol.
Turning to `O=C([O-])CN1CCN(CC(=O)[O-])CCN(CC(=O)[O-])CCN(CC(=O)[O-])CC1.[Gd+3]` [GdDOTA], in series [2] (setting [4]), the “hyperfine coupling constant (AO/ℏ)” value is given as −3.7 ×10^6 rad/s and the “water exchange rate kex” value is 4.1e+06 s⁻¹. Moreover, in series [2] (reference complexes), the ER was 3.85 kcal/mol, the EV is 0.239 kcal/mol, the “ΔH‡” value is 11.9 kcal/mol and the “Δ^2” value is 0.16 10^20 s^−2. In series [2] (reference complexes), the “τRO^298” value was 77 ps and the “τV^298” value is reported as 11 ps.
On to `CC(O)CN1CCN(CC(=O)[O-])CCN(CC(=O)[O-])CCN(CC(=O)[O-])CC1.[Gd+3]` (centres unmarked) [GdHPDO3A, reference compound], for which the “T1-weighted MR image enhancement in pancreatic tissues and kidneys” value in the series on mouse pancreas is listed as “significant image enhancements”.
Regarding `CNC[C@H](O)[C@@H](O)[C@H](O)[C@H](O)CO.CNC[C@H](O)[C@@H](O)[C@H](O)[C@H](O)CO.O=C([O-])CN(CCN(CC(=O)[O-])CC(=O)O)CCN(CC(=O)[O-])CC(=O)O.[Gd+3]` [Magnevist, reference compound], the “kinetic stability against transmetalation” value in series [3] is “some transmetalation”.
Turning to `CN(C)c1cccc2c(S(=O)(=O)NCC(=O)O)cccc12` [dansylglycine], the Kd at HSA is 2500 nM.
